Legend:
H1 cells = assay: MTS viability assay; assay type: cell-based, human
Excerpt: (§1) • Figure 1: In vivo drug screening. (Figure left) Number of brain metastases at T1-weighted MRI with contrast (Student's t-test). (Figure right) Kaplan-Meier survival plot (Mantel-Cox log-rank test). There was no significant difference between vehicle- and memantine-treated mice. * P < 0.05; ** P < 0.01. All values are given as the mean ± s.e.m. • Figure 2: In vivo validation of β-sitosterol treatment-1. (Figure left) Number of brain metastases assessed by T1-weighted MRI with contrast (Student's t-test). The mean number of brain metastases in the vehicle group decreased slightly from seven to eight weeks as four mice with the greatest number of brain metastases were sacrificed between these observation points. (Figure right) Kaplan-Meier survival plot (Mantel-Cox log-rank test). The experiment was terminated at 100 days, and three mice in the β-sitosterol group were still alive and healthy. * P < 0.05; ** P < 0.01; **** P < 0.0001. All values are given as the mean ± s.e.m. • Figure 3: In vivo validation of β-sitosterol on H1_DL2 brain metastasis-2. (Figure left) Body weight from week zero to eight. […] (Figure right) Volume of brain metastases at MRI (T1-weighted with contrast). Total volume of brain metastases per animal was compared at group level. Student's t-test: n.s. P ≥ 0.05, * P < 0.05, ** P < 0.01, *** P < 0.001, **** P < 0.0001. All values are given as the mean ± s.e.m. • Figure 4: In vivo validation of β-sitosterol on PC14-PE6-Br2 brain metastases. Mice were injected intracardially with 5 x 10^5 PC14-PE6-Br2 cells. Test groups received daily i.p. injections of 0.1 mL vehicle (olive oil; n =4) or β-sitosterol 5 mg/kg (n = 6). (Figure left) Total volume of brain metastases at MRI at three weeks (T1-weighted with contrast). Total volume of brain metastases per animal was compared at group level. (Figure right) Kaplan-Meier survival plot (Mantel-Cox log-rank test: *** P < 0.001). All values are given as the mean ± s.e.m. • Figure 5: In vitro and in vivo effects on additional melanoma metastatic cell lines. (Figure left) Half maximal inhibitory concentration (IC50) values for β-sitosterol, PLX4720 and the combination thereof in Melmet 1, Melmet 5 and A375 cell lines (n = 3). (Figure right) Subcutaneous tumor volume ([width2 x length]/2) in mice injected with […] Melmet 5 cells. Mice were from 2 weeks onwards given daily i.p. injections of 0.1 mL vehicle (olive oil), 20 mg/kg β-sitosterol in olive oil, 25 mg/kg PLX4720 in 0.05% DMSO, or a combination of the two latter (n = 8 in each group). […] After 24 hours, the drugs were added to the wells, incubated for 72 hours, and then viability was assessed using an MTS assay. […] After 24 hours, the drugs were added to the wells, incubated for 72 hours, and then viability was assessed using an MTS assay. […]

MDA-MB-231 = assay: MTS viability assay; assay type: cell-based, human
Excerpt: as §1

Melmet 5 cells = assay: subcutaneous Melmet 5 melanoma model; assay type: in vivo, mice; conditions: daily i.p. from 2 weeks: 20 mg/kg β-sitosterol, 25 mg/kg PLX4720, or both
Excerpt: (§2) • Figure 1: In vivo drug screening. (Figure left) Number of brain metastases at T1-weighted MRI with contrast (Student's t-test). (Figure right) Kaplan-Meier survival plot (Mantel-Cox log-rank test). There was no significant difference between vehicle- and memantine-treated mice. * P < 0.05; ** P < 0.01. All values are given as the mean ± s.e.m. • Figure 2: In vivo validation of β-sitosterol treatment-1. (Figure left) Number of brain metastases assessed by T1-weighted MRI with contrast (Student's t-test). The mean number of brain metastases in the vehicle group decreased slightly from seven to eight weeks as four mice with the greatest number of brain metastases were sacrificed between these observation points. (Figure right) Kaplan-Meier survival plot (Mantel-Cox log-rank test). The experiment was terminated at 100 days, and three mice in the β-sitosterol group were still alive and healthy. * P < 0.05; ** P < 0.01; **** P < 0.0001. All values are given as the mean ± s.e.m. • Figure 3: In vivo validation of β-sitosterol on H1_DL2 brain metastasis-2. (Figure left) Body weight from week zero to eight. […] After 24 hours, the drugs were added to the wells, incubated for 72 hours, and then viability was assessed using an MTS assay. […] After 24 hours, the drugs were added to the wells, incubated for 72 hours, and then viability was assessed using an MTS assay. […]

four melanoma cell lines = assay: monolayer viability and tumorsphere assays; assay type: cell-based; conditions: among top 10 candidate compounds from cMap
Excerpt: Based on RNA sequencing of tumors in brains, adrenals, bone and ovaries from mice, we defined a 108-gene brain metastasis signature using a comparative work-flow of independent analyses of gene expression profiles from brain versus other organ metastases in a human BRAF-mutant melanoma xenograft model. […] For further studies, we concentrated on the top 10 candidate anti-brain metastatic compounds. To test the efficacy of the candidate compounds, we performed monolayer viability and tumorsphere assays in four melanoma cell lines (Daphu I et al, Int J Mol Sci 2014;15:8773.8794, Netland IA et al, J Neurooncol 2016;129:57-66). IC50 values were generally lower in tumorspheres than in monolayers, and there was substantial variation in cell line sensitivity.

brain metastases = assay: in vivo drug screening in human-to-mouse brain metastasis model; conditions: compared with vehicle-treated mice; for survival: Kaplan-Meier
Excerpt: (§3) • Figure 1: In vivo drug screening. (Figure left) Number of brain metastases at T1-weighted MRI with contrast (Student's t-test). (Figure right) Kaplan-Meier survival plot (Mantel-Cox log-rank test). There was no significant difference between vehicle- and memantine-treated mice. * P < 0.05; ** P < 0.01. All values are given as the mean ± s.e.m. • Figure 2: In vivo validation of β-sitosterol treatment-1. (Figure left) Number of brain metastases assessed by T1-weighted MRI with contrast (Student's t-test). The mean number of brain metastases in the vehicle group decreased slightly from seven to eight weeks as four mice with the greatest number of brain metastases were sacrificed between these observation points. (Figure right) Kaplan-Meier survival plot (Mantel-Cox log-rank test). The experiment was terminated at 100 days, and three mice in the β-sitosterol group were still alive and healthy. * P < 0.05; ** P < 0.01; **** P < 0.0001. All values are given as the mean ± s.e.m. • Figure 3: In vivo validation of β-sitosterol on H1_DL2 brain metastasis-2. (Figure left) Body weight from week zero to eight. […] (Figure right) Volume of brain metastases at MRI (T1-weighted with contrast). Total volume of brain metastases per animal was compared at group level. Student's t-test: n.s. P ≥ 0.05, * P < 0.05, ** P < 0.01, *** P < 0.001, **** P < 0.0001. All values are given as the mean ± s.e.m. • Figure 4: In vivo validation of β-sitosterol on PC14-PE6-Br2 brain metastases. Mice were injected intracardially with 5 x 10^5 PC14-PE6-Br2 cells. Test groups received daily i.p. injections of 0.1 mL vehicle (olive oil; n =4) or β-sitosterol 5 mg/kg (n = 6). (Figure left) Total volume of brain metastases at MRI at three weeks (T1-weighted with contrast). Total volume of brain metastases per animal was compared at group level. (Figure right) Kaplan-Meier survival plot (Mantel-Cox log-rank test: *** P < 0.001). All values are given as the mean ± s.e.m. • Figure 5: In vitro and in vivo effects on additional melanoma metastatic cell lines. (Figure left) Half maximal inhibitory concentration (IC50) values for β-sitosterol, PLX4720 and the combination thereof in Melmet 1, Melmet 5 and A375 cell lines (n = 3). (Figure right) Subcutaneous tumor volume ([width2 x length]/2) in mice injected with […] Melmet 5 cells. Mice were from 2 weeks onwards given daily i.p. injections of 0.1 mL vehicle (olive oil), 20 mg/kg β-sitosterol in olive oil, 25 mg/kg PLX4720 in 0.05% DMSO, or a combination of the two latter (n = 8 in each group). Representative images of tumors at 44 days are shown in the right panel. Student's t-test: * P < 0.05, ** P < 0.01. Values are given as the mean ± s.e.m. • Figure 6: In vitro effects of other BRAF and MEK inhibitors on human melanoma brain metastatic cell lines. 5000 cells (human BRAF mutated melanoma brain metastatic cell lines H1, H9 or H10) were plated in each well of a 96 well dish. After 24 hours, the drugs were added to the wells, incubated for 72 hours, and then viability was assessed using an MTS assay. […] 5000 cells were plated in each well of a 96 well dish. After 24 hours, the drugs were added to the wells, incubated for 72 hours, and then viability was assessed using an MTS assay.
We next investigated the efficacy of thiostrepton, memantine, and β-sitosterol using a highly standardized human-to-mouse brain metastasis model (Sundstrøm T et al, Cancer Res 2013;73:2445-2456). Drug treatment was commenced one week after tumor cell injections.

H1_DL2 brain metastasis = assay: in vivo validation of β-sitosterol treatment, treatment commenced before cell injection; design: species or system mice
Excerpt: as §3
To validate our β-sitosterol treatment findings, we carried out a new and more extensive in vivo study in which treatment commenced before cell injection.

[1] = tested on: PC14-PE6-Br2 brain metastases; assay: in vivo validation on lung adenocarcinoma brain metastases; design: species or system mice; conditions: 5 mg/kg daily i.p.
Excerpt: • Figure 1: In vivo drug screening. (Figure left) Number of brain metastases at T1-weighted MRI with contrast (Student's t-test). (Figure right) Kaplan-Meier survival plot (Mantel-Cox log-rank test). There was no significant difference between vehicle- and memantine-treated mice. * P < 0.05; ** P < 0.01. All values are given as the mean ± s.e.m. • Figure 2: In vivo validation of β-sitosterol treatment-1. (Figure left) Number of brain metastases assessed by T1-weighted MRI with contrast (Student's t-test). The mean number of brain metastases in the vehicle group decreased slightly from seven to eight weeks as four mice with the greatest number of brain metastases were sacrificed between these observation points. (Figure right) Kaplan-Meier survival plot (Mantel-Cox log-rank test). The experiment was terminated at 100 days, and three mice in the β-sitosterol group were still alive and healthy. * P < 0.05; ** P < 0.01; **** P < 0.0001. All values are given as the mean ± s.e.m. • Figure 3: In vivo validation of β-sitosterol on H1_DL2 brain metastasis-2. (Figure left) Body weight from week zero to eight. […] After 24 hours, the drugs were added to the wells, incubated for 72 hours, and then viability was assessed using an MTS assay. […] After 24 hours, the drugs were added to the wells, incubated for 72 hours, and then viability was assessed using an MTS assay.

H10 cells = assay: MTS viability assay; assay type: cell-based, human
Excerpt: as §1

H9 cells = assay: MTS viability assay; assay type: cell-based; conditions: Homo sapiens, H9, 72 h, read-out: cell viability
Excerpt: as §2

[2] = human, mda-mb-231 cells, 72 h, 35 µM
[3] = MRI, treatment commenced one week after tumor cell injections

CC(=O)Nc1cccc(-n2c(=O)n(C3CC3)c(=O)c3c(Nc4ccc(I)cc4F)n(C)c(=O)c(C)c32)c1 [trametinib, reference compound]
cell viability (H1 cells; h1 cells, 72 h, 50 µM): ~60%
cell viability (MDA-MB-231; [2]): around 44%

CCCS(=O)(=O)Nc1ccc(F)c(C(=O)c2c[nH]c3ncc(Cl)cc23)c1F [PLX4720, reference compound]
subcutaneous tumor growth (Melmet 5 cells): effective as monotherapies

CC12CC3CC(C)(C1)CC(N)(C3)C2 [memantine, reference compound]
reducing viability and tumorsphere growth (four melanoma cell lines): most potent
survival (brain metastases): did not affect survival

C=C(NC(=O)C(=C)NC(=O)c1csc(C2=N[C@@H]3c4csc(n4)[C@H]4NC(=O)c5csc(n5)[C@H]([C@](C)(O)[C@@H](C)O)NC(=O)[C@H]5CSC(=N5)/C(=C/C)NC(=O)[C@H]([C@@H](C)O)NC(=O)c5csc(n5)[C@]3(CC2)NC(=O)[C@H](C)NC(=O)C(=C)NC(=O)[C@H](C)NC(=O)[C@H]([C@@H](C)CC)N[C@@H]2C=Cc3c([C@H](C)O)cc(nc3[C@H]2O)C(=O)O[C@@H]4C)n1)C(N)=O [thiostrepton, reference compound]
reducing viability and tumorsphere growth (four melanoma cell lines): most potent
survival (brain metastases): significantly shorter lifespan

CC[C@H](CC[C@@H](C)[C@H]1CC[C@H]2[C@@H]3CC=C4C[C@@H](O)CC[C@]4(C)[C@H]3CC[C@]12C)C(C)C [β-sitosterol]
reducing viability and tumorsphere growth (four melanoma cell lines): most potent
survival (brain metastases): survived significantly longer
number of brain metastases (brain metastases; [3]): significant reduction
volume of brain metastases (brain metastases; [3]): significant reduction
survival (H1_DL2 brain metastasis; Kaplan-Meier, compared with vehicle treatment, terminated at 100 days): significant survival benefit
volumes of brain metastases (H1_DL2 brain metastasis; MRI T1-weighted with contrast, compared with vehicle group): significantly lower volumes
number of brain metastases (H1_DL2 brain metastasis; T1-weighted MRI with contrast, compared with vehicle group): significantly fewer brain metastases
mice healthy and tumor-free (H1_DL2 brain metastasis; at 100 days, evaluated by brain MRI and histology): three out of nine
average body weight (H1_DL2 brain metastasis; at 100 days, three remaining mice, mean ± s.e.m.): 26.7 ± 0.6 grams
body weight (H1_DL2 brain metastasis; week zero to eight, vehicle-treated mice lost weight from four weeks onwards): maintained a stable body weight
survival ([1]; Kaplan-Meier): prolonged survival
brain metastatic burden ([1]; MRI at three weeks, compared with vehicle): significant reduction
subcutaneous tumor growth (Melmet 5 cells): effective as monotherapies
cell viability (H1 cells; 50uM beta-sitosterol, 5nM trametinib, 72 hours, compared with untreated cells): around 85%
cell viability (H10 cells; 50uM beta-sitosterol, 5uM vemurafenib, 72 hours, compared to the untreated cells): around 80%
viability at 50 µM (H9 cells): 85%
cell viability (MDA-MB-231; 35uM beta-sitosterol, 0.5uM trametinib, 72 hours (Figure 7 left)): around 48%
cell viability (MDA-MB-231; 35uM beta-sitosterol, 5uM vemurafenib, 72 hours (Figure 7 right)): around 44%

CCCS(=O)(=O)Nc1ccc(F)c(C(=O)c2c[nH]c3ncc(-c4ccc(Cl)cc4)cc23)c1F [vemurafenib, reference compound]
cell viability (H10 cells; h10 cells, 72 h, 50 µM): around 25%
cell viability (MDA-MB-231; [2]): ~73%
